In patent EP3977982A1 (Acerus Biopharma Inc., priority 2011, dated 2012):
Read-outs that look alike come from different tables or passages of the source.

Assays:
[1] = pKa assessment of testosterone; conditions: inferred from molecular structure, no protonatable groups
[2] = Solubility of testosterone in water, solvents, oils and vehicles
[3] = drug substance; cited from earlier work
[4] = biological target: T1, sex hormone binding globulin (SHBG) (Homo sapiens, UniProt P04278); conditions: cited from earlier work
T1 sequence (P04278 30-402): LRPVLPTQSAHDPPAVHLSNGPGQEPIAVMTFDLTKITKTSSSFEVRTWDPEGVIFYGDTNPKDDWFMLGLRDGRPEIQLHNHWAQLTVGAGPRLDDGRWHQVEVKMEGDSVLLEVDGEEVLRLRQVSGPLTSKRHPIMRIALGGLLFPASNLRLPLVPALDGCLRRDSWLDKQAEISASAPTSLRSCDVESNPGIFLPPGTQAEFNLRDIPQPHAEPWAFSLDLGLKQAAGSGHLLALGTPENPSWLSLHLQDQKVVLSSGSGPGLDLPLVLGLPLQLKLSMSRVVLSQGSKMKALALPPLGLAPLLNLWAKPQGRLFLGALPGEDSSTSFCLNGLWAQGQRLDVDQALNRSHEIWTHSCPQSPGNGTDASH

[5] = cited from earlier work
[6] = nasal, dissolved in polyethylene glycol (200 mg/ml); cited from earlier work
[7] = formulated in ethanol/propylene glycol/water; cited from earlier work
[8] = nasal, cited from earlier work

C[C@]12CC[C@H]3[C@@H](CCC4=CC(=O)CC[C@@]43C)[C@@H]1CC[C@@H]2O [testosterone, Testosterone]
pKa [1]: no pKa value in the range 1-14
testosterone levels in the gel ([2]; DMI used in conjunction with the other excipients): ≥ 8.0%
testosterone dissolved by solvent alone ([2]; Diethyleneglycol ethyl ether alone): more than 10%
testosterone dissolved by solvent ([2]; Dimethyl isosorbide (DMI)): more than 12%
solubility ([2]; acetone and isopropanol): soluble
amount an aqueous solution can contain ([2]; aqueous solution): 0.002 mg per 100 µL
solubility of testosterone in oils ([2]; castor oil): up to 4%
amount a castor oil solution can contain ([2]; castor oil solution): up to 4.5 mg per 100 µL
solubility of testosterone in oils ([2]; corn oil): 0.5%
solubility of testosterone in oils ([2]; cottonseed oil): 0.7%
solubility of testosterone in oils ([2]; isopropylmyristate): 0.8%
solubility ([2]; methanol and ethanol): freely soluble
solubility ([2]; n-heptane): insoluble
Testosterone solubility in the oil based gel ([2]; oil based TBS-1A gel (so in the source)): about 4.5%
solubility of testosterone in oils ([2]; peanut oil): 0.5%
solubility of testosterone in oils ([2]; soybean oil): 0.6%
retest period [3]: 5 years
testosterone remaining unbound (free) ([4]; in men): about 2%
testosterone remaining unbound (free) ([4]; in women): up to 3%

CC(=O)[C@H]1CC[C@H]2[C@@H]3CCC4=CC(=O)CC[C@]4(C)[C@H]3CC[C@]12C [progesterone]
serum level decrease ([5]; nasal powder mixtures progesterone/cyclodextrin): ≤ 20 min
Tmax ([5]; nasal powder mixtures, co-ground and co-lyophilized progesterone/cyclodextrin): 2 to 5 min
Tmax [6]: 30 min
duration of serum level [6]: at least 8 hours
Tmax [7]: 5.5 min

CN(C)CC(=O)O[C@H]1CC[C@H]2[C@@H]3CCC4=CC(=O)CC[C@]4(C)[C@H]3CC[C@]12C [testosterone 17β-N,N-dimethylglycinate]
time to peak plasma concentrations ([8]; 25 mg dose): ≤ 12 min
time to peak plasma concentrations ([8]; 50 mg dose): ≤ 20 min
elimination half-lives [8]: about 55 min
